Source: PubChem BioAssay (NCI)
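Compound exposure: 48 hours, 5 concentrations, 96-well plates. Here, GI50 denotes the concentration required for 50% inhibition of growth. Definition used: TGI = concentration required for complete inhibition of growth.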

Assays:
Assay in all cases: growth of human tumour cells (NCI), 48 h
HCT-116 colon = system: HCT-116 colon
M19-MEL melanoma = system: M19-MEL melanoma
NCI-H522 lung = system: NCI-H522 lung
LOX IMVI melanoma = system: LOX IMVI melanoma
DMS 273 small cell lung = system: DMS 273 small cell lung
NCI-H23 lung = system: NCI-H23 lung
SNB-19 CNS = system: SNB-19 CNS
OVCAR-4 ovarian = system: OVCAR-4 ovarian
UO-31 renal = system: UO-31 renal
HCC-2998 colon = system: HCC-2998 colon
BT-549 breast = system: BT-549 breast

Compound	TGI (HCT-116 colon) [µM]	TGI (M19-MEL melanoma) [µM]	TGI (NCI-H522 lung) [µM]	TGI (LOX IMVI melanoma) [µM]	TGI (DMS 273 small cell lung) [µM]	TGI (NCI-H23 lung) [µM]	TGI (SNB-19 CNS) [µM]	TGI (OVCAR-4 ovarian) [µM]	TGI (UO-31 renal) [µM]	TGI (HCC-2998 colon) [µM]	TGI (BT-549 breast) [µM]	GI50 (HCT-116 colon) [µM]	GI50 (NCI-H522 lung) [µM]	GI50 (LOX IMVI melanoma) [µM]	GI50 (BT-549 breast) [µM]	GI50 (NCI-H23 lung) [µM]	GI50 (SNB-19 CNS) [µM]	GI50 (UO-31 renal) [µM]	GI50 (OVCAR-4 ovarian) [µM]	GI50 (HCC-2998 colon) [µM]
CC[S+](C)c1ccc(-c2c3nc(c(-c4ccc([S+](C)CC)cc4)c4ccc([nH]4)c(-c4ccc([S+](C)CC)cc4)c4nc(c(-c5ccc([S+](C)CC)cc5)c5ccc2[nH]5)C=C4)C=C3)cc1 (stereo unspecified)	> 100	> 100	> 100	23.3	> 100	> 100	> 100	> 100												
CCc1c(-c2coc(CC/C(C)=C/c3ccccc3)n2)oc(OC)c(C)c1=O	> 87.8	> 100	15.3	> 50.9	> 54.7	> 95.4	> 86.3	> 55.5	> 53.1	> 100										
C=CC[C@@]1(C#N)C[C@H](C[C@]2(C#N)C[C@H](CCl)OC(C)(C)O2)OC(C)(C)O1	> 100	> 100	> 100	> 100	> 100	> 100	> 100	> 100	> 100	> 100										
Cc1cc(C)c(N)c(C)c1N	> 100	> 100	> 100	> 100	> 100	> 100	> 100		> 100	> 100										
CC1=NN(C(=O)c2ccccc2)C(=O)C1N=Nc1ccccc1C(=O)O (stereo unspecified)	> 100	> 100	38	> 100	> 100	> 40.6	> 100	> 55	21.8	> 70.6										
CCOC(=O)c1[nH]n(-c2ccccc2)c(=O)c1C=NC(=S)C(N)=S	44.6		35.5	> 100		> 100	> 100	> 100	42.2	> 100	> 100									
Cn1nc2ccc3nccc(NCCNCCCl)c3c2n1	> 100	> 100	> 100	> 100	> 100		> 100	> 100	> 100	> 100										
N/C(=N\N=C/c1cc(Cl)cc(Cl)c1O)NO	12.3	27		6.66	11.9	19.8	> 53.9	20.9	13.7	10.1										
CCCCCCCCC[C@@H]1C[C@@H]2CCC3C(C(=O)OCCCCNC(=O)OCc4ccccc4)=C(C)NC(=N1)N32 (stereo partly specified)	10		6.01	4.31		6.78	29.4	21.3	13.7	11.1	12.6									
CCNC(=O)CCCCC(=O)c1c(C)[nH]c(/C=C2\N=C(c3ccc[nH]3)C=C2OC)c1C	23.6		5.48	3.65		24.5	19.2	4.36	4.51	7.9	10.3	2.33	2.2	1.76	2.85	4.5	6.74	2.03	1.76	2.42
COc1cc(C2c3cc4c(cc3[C@@H](Nc3ccc(N5CCOCC5)cc3)C3COC(=O)[C@H]23)OCO4)cc(OC)c1O (stereo partly specified)	13.7	22.8	3.4	4.27	1.85		2.72	25.9	5.16	4.1										
Cc1cc(O)c(/C=N/C(=O)NN)c(=O)o1	> 100		> 100	> 100		> 100	> 100	> 100	> 100	> 100	> 100									
CCOC(=O)C1CCn2c(nc3c(=O)n(C)c(=O)n(C)c32)S1 (stereo unspecified)	> 100		> 100	> 100	> 100	> 100	> 100	> 100												
CCOC(=O)CCc1c(C)c2c(O)cc(O)cc2oc1=O	> 100	> 100	> 100	> 100	> 100	> 100	> 100	> 100	> 100	> 100										
